Reference: patent EP0535528A1, “Antibacterial 5-Nitro-1-methyl-imidazolyl-3-terbutyl-2-hydroxy-aryl-carbinols” (EURORESEARCH S.r.L., priority 1991, dated 1993)

System: Helicobapter pylori
Assay: Inhibition halos of the bacterial growth (impregnated disks on agar)
Format: cell-based
Procedure: Comparison substance: Metronidazole Solubilization of the substances : All the substances to be studied are dissolved at room temperature in DMSO.
Some commercially available antibiogram disks are so impregnated with the above mentioned compounds that each disk has concentration equal to 10, 1, 0.1, 0.01 µg.
10 strains of Helicobapter pylori are used of recent clinical isolation.
Columbia Blood Agar Base is used, containing 5% of defibrinated horse blood, 2 % of calf serum, 2 vials of Vitox per liter of medium and Vancomicine (10 µg/ml) Trimetoprim lactate(5 µg/ml) and Polimixin B (2.5 U/ml).
0.1 ml of a suspension of the different used strains are uniformly distributed onto Petri plates, containing 20 ml of Columbia Blood Agar base, obtained by taking a sample, by means of a platinum loop, of different colonies from a 48 hours culture, grown in anaerobiosis jars with "Gas Pack", without a catalyst and diluted into a physiological solution.
4 disks per plate, previously impregnated with the substances under examination, are then placed onto the agar layer of each plate.
After 48 hours of anaerobiosis incubation, as above described, the inhibition halos of the bacterial growth, produced by the different activity of the substances inside the agar, are evaluated.

Q: What does the source list for `COc1cc(C(O)c2ncc([N+](=O)[O-])n2C)c(O)c(C(C)(C)C)c1` (centres unmarked) [EU11100, 5-nitro-1-methyl-imidazolyl-3-terbutyl-2-hydroxy-5-methoxy-phenyl-carbinol]?
A: activity against the Helicobapter pylori strains used (10 strains, 0.1 µg/disk): still able to produce halos against all the strains used; Inhibition halo (mm), Average (average of 10 strains, 10 µg/disk): 43.7 mm; Inhibition halo (mm) at the concentration (µg/disk) (strain 1, 0.01 µg/disk): 0 mm; Inhibition halo (mm) at the concentration (µg/disk) (strain 1, 0.1 µg/disk): 26 mm; Inhibition halo (mm) at the concentration (µg/disk) (strain 1, 1 µg/disk): 35 mm; Inhibition halo (mm) at the concentration (µg/disk) (strain 1, 10 µg/disk): 50 mm; Inhibition halo (mm) at the concentration (µg/disk) (strain 2, 0.01 µg/disk): 0 mm; Inhibition halo (mm) at the concentration (µg/disk) (strain 2, 1 µg/disk): 30 mm; Inhibition halo (mm) at the concentration (µg/disk) (strain 2, 10 µg/disk): 44 mm; Inhibition halo (mm) at the concentration (µg/disk) (strain 3, 0.01 µg/disk): 0 mm; Inhibition halo (mm) at the concentration (µg/disk) (strain 3, 0.1 µg/disk): 14 mm; Inhibition halo (mm) at the concentration (µg/disk) (strain 3, 1 µg/disk): 30 mm; Inhibition halo (mm) at the concentration (µg/disk) (strain 3, 10 µg/disk): 38 mm; Inhibition halo (mm) at the concentration (µg/disk) (strain 4, 0.01 µg/disk): 0 mm; Inhibition halo (mm) at the concentration (µg/disk) (strain 4, 0.1 µg/disk): 26 mm; Inhibition halo (mm) at the concentration (µg/disk) (strain 4, 1 µg/disk): 35 mm; Inhibition halo (mm) at the concentration (µg/disk) (strain 4, 10 µg/disk): 50 mm; Inhibition halo (mm) at the concentration (µg/disk) (strain 5, 0.01 µg/disk): 0 mm; Inhibition halo (mm) at the concentration (µg/disk) (strain 5, 0.1 µg/disk): 12 mm; Inhibition halo (mm) at the concentration (µg/disk) (strain 5, 1 µg/disk): 22 mm; Inhibition halo (mm) at the concentration (µg/disk) (strain 5, 10 µg/disk): 38 mm; Inhibition halo (mm) at the concentration (µg/disk) (strain 6, 0.01 µg/disk): 0 mm; Inhibition halo (mm) at the concentration (µg/disk) (strain 6, 0.1 µg/disk): 22 mm; Inhibition halo (mm) at the concentration (µg/disk) (strain 6, 1 µg/disk): 34 mm; Inhibition halo (mm) at the concentration (µg/disk) (strain 6, 10 µg/disk): 48 mm; Inhibition halo (mm) at the concentration (µg/disk) (strain 7, 0.01 µg/disk): 0 mm; Inhibition halo (mm) at the concentration (µg/disk) (strain 7, 0.1 µg/disk): 12 mm; Inhibition halo (mm) at the concentration (µg/disk) (strain 7, 1 µg/disk): 28 mm; Inhibition halo (mm) at the concentration (µg/disk) (strain 7, 10 µg/disk): 35 mm; Inhibition halo (mm) at the concentration (µg/disk) (strain 8, 0.01 µg/disk): 0 mm; Inhibition halo (mm) at the concentration (µg/disk) (strain 8, 0.1 µg/disk): 21 mm; Inhibition halo (mm) at the concentration (µg/disk) (strain 8, 10 µg/disk): 48 mm; Inhibition halo (mm) at the concentration (µg/disk) (strain 9, 0.01 µg/disk): 0 mm; Inhibition halo (mm) at the concentration (µg/disk) (strain 9, 1 µg/disk): 28 mm; Inhibition halo (mm) at the concentration (µg/disk) (strain 9, 10 µg/disk): 43 mm; Inhibition halo (mm) at the concentration (µg/disk) (strain 10, 0.01 µg/disk): 0 mm; Inhibition halo (mm) at the concentration (µg/disk) (strain 10, 0.1 µg/disk): 14 mm; Inhibition halo (mm) at the concentration (µg/disk) (strain 10, 10 µg/disk): 43 mm
